Experimental findings from publication PMC4904262 (ACS Medicinal Chemistry Letters, 2016) are described below.

A short description of data set [1]: in vitro. The note with it: mouse, plasma.
Data set [2] deals with CDK8 in the presence of cyclin C (Homo sapiens, UniProt P49336). The data set is described as follows: biochemical. The settings on record: read-out: CDK8 residence time ± SD.
The conditions of data set [3]: mouse, in vivo, iv, 0.2 mg/kg.
A short description of data set [4]: in vitro. The note with it: rat, microsomes.
A further data set can be described thus: in vivo. The note with it: rat.
The test system of another data set is phospho-STAT1^SER727. The note with it: single 5 mg/kg po dose; SW620 xenograft.
The target in data set [5] is CDK19 in the presence of cyclin C (Homo sapiens, UniProt Q9BWU1). The data set is described as follows: biochemical. The note with it: read-out: CDK19 residence time ± SD.
The target of a further data set is ABL (H396P) (Homo sapiens, UniProt P00519, H396P). The note with it: 1 µM, ATP at Km.
The target of another data set is TIE2(Y897S) (Homo sapiens, UniProt Q02763, Y897S). The settings on record: 1 µM, ATP at Km.
Chain of TIE2(Y897S) (Q02763 23-1124 Y897S): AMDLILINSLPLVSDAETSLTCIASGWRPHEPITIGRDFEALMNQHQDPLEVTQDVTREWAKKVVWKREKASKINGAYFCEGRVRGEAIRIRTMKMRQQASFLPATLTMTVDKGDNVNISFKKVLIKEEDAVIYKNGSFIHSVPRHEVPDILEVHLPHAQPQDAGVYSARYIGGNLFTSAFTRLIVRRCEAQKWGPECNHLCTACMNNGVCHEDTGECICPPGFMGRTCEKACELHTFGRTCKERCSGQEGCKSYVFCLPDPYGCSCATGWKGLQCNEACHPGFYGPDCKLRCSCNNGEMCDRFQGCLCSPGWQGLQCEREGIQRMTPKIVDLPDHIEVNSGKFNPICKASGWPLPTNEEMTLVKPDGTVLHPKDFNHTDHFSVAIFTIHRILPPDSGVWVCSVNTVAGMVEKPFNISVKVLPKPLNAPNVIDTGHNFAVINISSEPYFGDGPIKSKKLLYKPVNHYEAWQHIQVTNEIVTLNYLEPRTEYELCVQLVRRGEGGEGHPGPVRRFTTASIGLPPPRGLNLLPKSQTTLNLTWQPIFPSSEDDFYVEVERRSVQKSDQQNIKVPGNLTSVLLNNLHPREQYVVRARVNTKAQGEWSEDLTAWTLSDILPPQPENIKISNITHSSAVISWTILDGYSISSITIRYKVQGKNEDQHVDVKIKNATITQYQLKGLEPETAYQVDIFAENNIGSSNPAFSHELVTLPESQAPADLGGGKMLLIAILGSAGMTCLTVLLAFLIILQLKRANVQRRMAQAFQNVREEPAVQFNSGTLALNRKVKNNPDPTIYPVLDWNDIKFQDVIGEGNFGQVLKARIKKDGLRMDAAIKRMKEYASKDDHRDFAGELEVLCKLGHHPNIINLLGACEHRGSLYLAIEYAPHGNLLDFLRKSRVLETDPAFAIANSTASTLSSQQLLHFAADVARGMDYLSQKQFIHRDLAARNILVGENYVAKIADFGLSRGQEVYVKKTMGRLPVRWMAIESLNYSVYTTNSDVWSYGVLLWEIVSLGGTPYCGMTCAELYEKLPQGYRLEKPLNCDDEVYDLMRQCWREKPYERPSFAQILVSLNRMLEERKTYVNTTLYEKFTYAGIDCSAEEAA
The target in the next data set is PI3 KINASE (H1047R/P85A) (Homo sapiens, UniProt P42336, H1047R). The note with it: 1 µM, ATP at Km.
Chain of PI3 KINASE (H1047R/P85A) (P42336 whole entry H1047R): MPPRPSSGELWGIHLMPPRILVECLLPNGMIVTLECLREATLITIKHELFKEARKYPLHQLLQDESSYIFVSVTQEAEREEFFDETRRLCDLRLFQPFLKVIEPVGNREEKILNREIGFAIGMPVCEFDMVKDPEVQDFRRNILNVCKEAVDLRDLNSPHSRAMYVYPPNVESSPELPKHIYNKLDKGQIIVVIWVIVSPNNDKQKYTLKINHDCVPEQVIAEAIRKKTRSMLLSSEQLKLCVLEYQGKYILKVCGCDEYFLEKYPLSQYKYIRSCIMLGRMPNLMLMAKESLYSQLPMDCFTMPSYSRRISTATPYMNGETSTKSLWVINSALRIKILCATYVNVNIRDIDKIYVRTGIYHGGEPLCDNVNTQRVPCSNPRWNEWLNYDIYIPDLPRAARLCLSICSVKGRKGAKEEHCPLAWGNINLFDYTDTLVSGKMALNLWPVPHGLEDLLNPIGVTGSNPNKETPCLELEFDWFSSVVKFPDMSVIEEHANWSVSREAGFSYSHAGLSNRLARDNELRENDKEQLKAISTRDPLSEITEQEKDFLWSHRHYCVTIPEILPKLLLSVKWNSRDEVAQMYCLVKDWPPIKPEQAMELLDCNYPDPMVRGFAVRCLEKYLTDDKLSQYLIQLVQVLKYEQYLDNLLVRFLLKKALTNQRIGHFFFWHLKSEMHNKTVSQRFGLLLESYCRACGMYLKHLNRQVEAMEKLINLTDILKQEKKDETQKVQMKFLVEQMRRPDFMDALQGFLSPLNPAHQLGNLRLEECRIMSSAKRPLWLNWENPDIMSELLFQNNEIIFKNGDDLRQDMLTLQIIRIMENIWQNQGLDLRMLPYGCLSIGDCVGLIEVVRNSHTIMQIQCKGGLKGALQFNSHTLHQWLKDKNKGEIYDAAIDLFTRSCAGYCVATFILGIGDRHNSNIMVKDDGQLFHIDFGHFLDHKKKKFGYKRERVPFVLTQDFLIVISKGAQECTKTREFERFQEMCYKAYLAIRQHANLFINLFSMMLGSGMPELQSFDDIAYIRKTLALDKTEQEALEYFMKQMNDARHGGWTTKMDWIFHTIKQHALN
Chain of PI3 KINASE (H1047R/P85A) (P27986 2-724 partner): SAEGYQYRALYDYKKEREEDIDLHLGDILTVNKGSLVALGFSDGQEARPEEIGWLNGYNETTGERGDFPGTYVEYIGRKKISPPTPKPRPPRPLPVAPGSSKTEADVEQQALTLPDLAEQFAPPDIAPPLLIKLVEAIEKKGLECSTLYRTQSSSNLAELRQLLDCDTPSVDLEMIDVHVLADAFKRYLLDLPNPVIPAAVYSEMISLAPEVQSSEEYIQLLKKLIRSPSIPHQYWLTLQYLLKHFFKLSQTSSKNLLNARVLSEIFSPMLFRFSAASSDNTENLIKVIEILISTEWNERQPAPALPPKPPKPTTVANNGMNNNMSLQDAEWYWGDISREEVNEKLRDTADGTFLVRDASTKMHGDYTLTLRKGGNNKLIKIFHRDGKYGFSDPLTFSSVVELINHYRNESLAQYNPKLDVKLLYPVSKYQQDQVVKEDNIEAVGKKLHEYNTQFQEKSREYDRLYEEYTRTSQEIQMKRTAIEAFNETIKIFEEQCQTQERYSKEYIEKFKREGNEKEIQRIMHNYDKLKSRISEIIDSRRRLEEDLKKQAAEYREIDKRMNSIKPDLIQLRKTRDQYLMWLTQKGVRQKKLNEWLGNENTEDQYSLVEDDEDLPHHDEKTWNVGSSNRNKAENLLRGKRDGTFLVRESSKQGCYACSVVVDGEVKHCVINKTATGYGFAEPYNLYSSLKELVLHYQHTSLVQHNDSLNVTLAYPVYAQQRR
A further data set concerns the target ABL (M351T) (Homo sapiens, UniProt P00519, M351T). The note with it: 1 µM, ATP at Km.
The subject of a further data set is PI3 KINASE (P65A). The note with it: 1 µM, ATP at Km.
Another data set addresses SRC(T341M) (Homo sapiens, UniProt P12931, T341M). The settings on record: 1 µM, ATP at Km.
Another data set deals with […](D842V) (Homo sapiens, UniProt P16234, D842V). The note with it: 1 µM, ATP at Km.
Another data set concerns the target CKIT(D816V) (Homo sapiens, UniProt P10721, D816V). The settings on record: 1 µM, ATP at Km.
A further data set concerns the target LCK (Homo sapiens, UniProt P06239). The note with it: LCK (second listing, page 11); 1 µM; ATP at Km.
The target of a further data set is EGFR(T790M) (Homo sapiens, UniProt P00533, T790M). The settings on record: 1 µM, ATP at Km.
The next data set has as its target RET (V804L) (Homo sapiens, UniProt P07949, V804L). The settings on record: 1 µM, ATP at Km.
The next data set concerns the target EGFR(L861Q) (Homo sapiens, UniProt P00533, L861Q). The note with it: 1 µM, ATP at Km.
A further data set has as its target ABL(T315I) (Homo sapiens, UniProt P00519, T315I). The note with it: 1 µM, ATP at Km.
The target in a further data set is FLT3(D835Y) (Homo sapiens, UniProt P36888, D835Y). The settings on record: 1 µM, ATP at Km.
Another data set has as its target BTK(R28H) (Homo sapiens, UniProt Q06187, R28H). The note with it: 1 µM, ATP at Km.
Another data set concerns the target cMET (M1268T) (Homo sapiens, UniProt P08581, M1250T). The settings on record: 1 µM, ATP at Km.
For the next data set, the target named is EGFR(T790M,L858R) (Homo sapiens, UniProt P00533, L858R/T790M). The note with it: 1 µM, ATP at Km.
Another data set has as its target CHK2(I157T) (Homo sapiens, UniProt O96017, I157T). The note with it: 1 µM, ATP at Km.
The target in another data set is PI3 KINASE (E542K/P85A) (Homo sapiens, UniProt P42336, E542K). The note with it: PI3 KINASE (E542K/P85A) (first listing); 1 µM; ATP at Km.
Chain of PI3 KINASE (E542K/P85A) (P42336 whole entry E542K): as the sequence (P42336 whole entry H1047R) above, with E542K, R1047H counted along it
Chain of PI3 KINASE (E542K/P85A) (P27986 2-724 partner): as the sequence (P27986 2-724 partner) above
Another data set addresses EGFR(L858R) (Homo sapiens, UniProt P00533, L858R). The note with it: 1 µM, ATP at Km.

Chain of CKIT(D816V) (P10721 26-976 D816V): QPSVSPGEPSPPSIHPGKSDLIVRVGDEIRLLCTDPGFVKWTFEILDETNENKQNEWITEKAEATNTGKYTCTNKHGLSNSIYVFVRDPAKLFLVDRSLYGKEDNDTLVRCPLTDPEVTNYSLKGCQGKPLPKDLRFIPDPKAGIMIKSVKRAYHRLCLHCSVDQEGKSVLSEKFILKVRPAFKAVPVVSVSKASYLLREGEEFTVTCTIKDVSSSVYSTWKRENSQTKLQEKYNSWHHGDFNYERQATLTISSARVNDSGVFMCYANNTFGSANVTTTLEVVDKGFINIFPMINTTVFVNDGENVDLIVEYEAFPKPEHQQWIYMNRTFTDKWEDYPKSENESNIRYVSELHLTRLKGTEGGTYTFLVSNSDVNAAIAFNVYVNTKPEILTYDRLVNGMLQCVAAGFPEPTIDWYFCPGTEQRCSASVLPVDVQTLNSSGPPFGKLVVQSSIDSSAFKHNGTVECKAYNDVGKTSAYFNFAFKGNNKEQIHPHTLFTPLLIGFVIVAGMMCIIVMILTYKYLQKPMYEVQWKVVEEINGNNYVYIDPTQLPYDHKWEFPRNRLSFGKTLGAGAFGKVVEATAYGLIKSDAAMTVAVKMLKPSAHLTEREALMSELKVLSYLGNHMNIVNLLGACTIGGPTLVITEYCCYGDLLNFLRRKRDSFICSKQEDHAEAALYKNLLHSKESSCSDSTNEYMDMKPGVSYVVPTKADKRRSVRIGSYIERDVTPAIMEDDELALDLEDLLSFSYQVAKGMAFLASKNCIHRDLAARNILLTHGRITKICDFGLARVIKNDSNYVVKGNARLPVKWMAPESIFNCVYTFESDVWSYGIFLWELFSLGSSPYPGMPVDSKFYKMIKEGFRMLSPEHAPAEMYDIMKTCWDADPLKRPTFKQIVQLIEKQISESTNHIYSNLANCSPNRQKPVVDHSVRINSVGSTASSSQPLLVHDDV
Chain of CHK2(I157T) (O96017 whole entry I157T): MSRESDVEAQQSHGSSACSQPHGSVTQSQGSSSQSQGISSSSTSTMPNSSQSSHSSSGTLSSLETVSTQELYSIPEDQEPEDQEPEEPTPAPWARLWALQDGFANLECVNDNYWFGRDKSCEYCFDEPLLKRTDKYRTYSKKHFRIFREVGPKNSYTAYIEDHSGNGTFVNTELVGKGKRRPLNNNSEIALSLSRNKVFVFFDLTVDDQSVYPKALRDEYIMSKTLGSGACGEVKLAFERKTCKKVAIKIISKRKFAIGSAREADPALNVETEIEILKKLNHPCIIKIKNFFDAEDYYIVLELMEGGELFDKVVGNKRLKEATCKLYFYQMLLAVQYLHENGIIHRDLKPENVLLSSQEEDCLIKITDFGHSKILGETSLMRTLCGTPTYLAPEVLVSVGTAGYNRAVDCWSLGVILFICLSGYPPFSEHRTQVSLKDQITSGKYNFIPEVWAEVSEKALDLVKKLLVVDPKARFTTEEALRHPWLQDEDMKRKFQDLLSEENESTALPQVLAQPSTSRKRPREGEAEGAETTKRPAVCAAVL
Chain of LCK (P06239 whole entry): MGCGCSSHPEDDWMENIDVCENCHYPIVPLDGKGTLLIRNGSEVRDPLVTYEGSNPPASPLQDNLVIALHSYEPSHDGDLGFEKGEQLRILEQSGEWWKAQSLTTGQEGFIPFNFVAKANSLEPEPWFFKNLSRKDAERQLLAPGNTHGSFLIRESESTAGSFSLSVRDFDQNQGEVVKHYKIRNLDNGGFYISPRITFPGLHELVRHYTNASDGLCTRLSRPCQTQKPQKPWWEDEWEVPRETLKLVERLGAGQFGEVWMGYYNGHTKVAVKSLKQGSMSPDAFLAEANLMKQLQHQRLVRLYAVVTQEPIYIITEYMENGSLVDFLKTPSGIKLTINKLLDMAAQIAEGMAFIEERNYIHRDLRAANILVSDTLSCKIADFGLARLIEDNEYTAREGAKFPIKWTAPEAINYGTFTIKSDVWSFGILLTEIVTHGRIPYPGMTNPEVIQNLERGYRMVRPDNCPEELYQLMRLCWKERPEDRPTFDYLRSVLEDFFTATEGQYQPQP

As for `COC1CN(C(=O)c2ccc3c(N)ncc(-c4ccc(-c5cnn(C)c5)cc4)c3n2)C1` [Compound 51], the fraction unbound in the data set “in vitro [1]” was 0.038. Also, the residence time worked out at 15 ± 2 min in data set [2] and 31 ± 3 min in [5]. Further, in data set [3], the “% in feces (iv dosing)” value turned out to be 31%. Moreover, the microsomal CLint at 1 µM in the data set “in vitro [4]” was found to be 26 µL/min/mg. Moreover, the volume of distribution (Vd) in “in vivo” (iv, 0.2 mg/kg) came to 2.13 L/kg. The compound also showed a clearance in “in vivo” (iv, 0.2 mg/kg) of 21.5 mL/min/kg. In addition, the bioavailability in the data set “in vivo” (po, 0.5 mg/kg) came to 57%. In addition, in the data set with phospho-STAT1^SER727, the “inhibition of phospho-STAT1^SER727 in tumor xenograft” value is “time-dependent inhibition of phospho-STAT1^SER727”.

`COC1CN(C(=O)c2ccc3c(N)ncc(-c4ccc(-c5cnn(C)c5)cc4)c3c2)C1` [Compound 59]: the percentage effect at ABL (H396P) was 5%; at TIE2(Y897S), -6%; at PI3 KINASE (H1047R/P85A), -2%; on ABL (M351T), 2%; in the data set with PI3 KINASE (P65A), -4%; on SRC(T341M), -18%. In addition, the percentage effect was 1% in […](D842V); -3% at CKIT(D816V); 4% on LCK; -2% at EGFR(T790M); -9% on RET (V804L); -9% at EGFR(L861Q). The percentage effect at ABL(T315I) is on record as 5%; at FLT3(D835Y), -10%; at BTK(R28H) it was -12%; on cMET (M1268T), 5%; at EGFR(T790M,L858R), -2%; at CHK2(I157T) it was -9%. Further, the results for the percentage effect on PI3 KINASE (E542K/P85A) and at EGFR(L858R) were -3% and -15%, respectively.

The term fraction unbound denotes free concentration divided by total concentration. What is called microsomal CLint is the rate of metabolic loss divided by the concentration. What is called Vd is the apparent volume that relates the amount in the body to the concentration in plasma or blood. Low values mean confinement near the circulation, high ones extensive tissue distribution. Broadly, the clearance is the volume of plasma or blood freed of the substance per unit of time. A high value points to efficient removal. Usually bioavailability stands for the share of a dose that reaches the circulation, judged against a reference dose that is usually intravenous. Higher therefore signals good availability.
